Values quoted from earlier work as cited in PMC8513935.
Each block holds one compound with its values, some of them ahead of it.

Experiments:
[1] = experimental, compiled by the authors from the literature (the ESI cites the sources)
[2] = log P octanol/water from commercial databases, averaged (the ESI); conditions: Octanol (wet), 25 C
[3] = derived by the authors as gas->solvent minus gas->water (a hypothetical dry solvent; the ESI), not a two-phase measurement

log K of transfer, gas to solvent ([1]; 2-Methylpropan-1-ol, 25 C): 7.01 log10 K | log K of transfer, gas to solvent ([1]; 2-Methylpropan-2-ol, 25 C): 7 log10 K | log K of transfer, gas to solvent ([1]; 3-Methylbutan-1-ol, 25 C): 7.13 log10 K | log K of transfer, gas to solvent ([1]; Acetonitrile, 25 C): 7.73 log10 K | log K of transfer, gas to solvent ([1]; Butan-1-ol, 25 C): 7.25 log10 K | log K of transfer, gas to solvent ([1]; Butan-2-ol, 25 C): 7.07 log10 K | log K of transfer, gas to solvent ([1]; Butanone, 25 C): 8.27 log10 K | log K of transfer, gas to solvent ([1]; Butyronitrile, 25 C): 8.19 log10 K | log K of transfer, gas to solvent ([1]; CCl4, 25 C): 8.05 log10 K | log K of transfer, gas to solvent ([1]; Chloroform, 25 C): 7.86 log10 K | log K of transfer, gas to solvent ([1]; Cyclohexane, 25 C): 7.41 log10 K | log K of transfer, gas to solvent ([1]; Cyclohexanone, 25 C): 8.33 log10 K | log K of transfer, gas to solvent ([1]; Di-n-butyl ether, 25 C): 7.72 log10 K | log K of transfer, gas to solvent ([1]; Ethanol, 25 C): 7.36 log10 K | log K of transfer, gas to solvent ([1]; Heptan-1-ol, 25 C): 7.41 log10 K | log K of transfer, gas to solvent ([1]; Hexadecane, 25 C): 7.63 log10 K | log K of transfer, gas to solvent ([1]; Hexane, 25 C): 7.35 log10 K | log K of transfer, gas to solvent ([1]; Methanol, 25 C): 7.24 log10 K | log K of transfer, gas to solvent ([1]; Octan-1-ol, 25 C): 7.52 log10 K | log K of transfer, gas to solvent ([1]; Pentan-1-ol, 25 C): 7.33 log10 K | log K of transfer, gas to solvent ([1]; Propan-1-ol, 25 C): 7.3 log10 K | log K of transfer, gas to solvent ([1]; Propan-2-ol, 25 C): 7.07 log10 K | log K of transfer, gas to solvent ([1]; Propanone, 25 C): 8.26 log10 K | log K of transfer, gas to solvent ([1]; Propionitrile, 25 C): 8.14 log10 K | log K of transfer, gas to solvent ([1]; Tetrahydrofuran, 25 C): 8.42 log10 K | log K of transfer, gas to solvent ([1]; Water, 25 C): 2.8 log10 K | log K of transfer, water to solvent [2]: 4.49 log10 K | log K of transfer, water to solvent ([3]; 2-Methylpropan-1-ol, 25 C): 4.21 log10 K | log K of transfer, water to solvent ([3]; 2-Methylpropan-2-ol, 25 C): 4.2 log10 K | log K of transfer, water to solvent ([3]; 3-Methylbutan-1-ol, 25 C): 4.33 log10 K | log K of transfer, water to solvent ([3]; Acetone, 25 C): 5.46 log10 K | log K of transfer, water to solvent ([3]; Acetonitrile, 25 C): 4.93 log10 K | log K of transfer, water to solvent ([3]; Butan-1-ol, 25 C): 4.45 log10 K | log K of transfer, water to solvent ([3]; Butan-2-ol, 25 C): 4.27 log10 K | log K of transfer, water to solvent ([3]; Butanone, 25 C): 5.47 log10 K | log K of transfer, water to solvent ([3]; Butyronitrile, 25 C): 5.39 log10 K | log K of transfer, water to solvent ([3]; CCl4, 25 C): 5.25 log10 K | log K of transfer, water to solvent ([3]; Chloroform, 25 C): 5.06 log10 K | log K of transfer, water to solvent ([3]; Cyclohexane, 25 C): 4.61 log10 K | log K of transfer, water to solvent ([3]; Cyclohexanone, 25 C): 5.53 log10 K | log K of transfer, water to solvent ([3]; Di-n-butyl ether, 25 C): 4.92 log10 K | log K of transfer, water to solvent ([3]; Ethanol, 25 C): 4.56 log10 K | log K of transfer, water to solvent ([3]; Heptan-1-ol, 25 C): 4.61 log10 K | log K of transfer, water to solvent ([3]; Hexadecane, 25 C): 4.83 log10 K | log K of transfer, water to solvent ([3]; Hexane, 25 C): 4.55 log10 K | log K of transfer, water to solvent ([3]; Methanol, 25 C): 4.44 log10 K | log K of transfer, water to solvent ([3]; Octan-1-ol(dry), 25 C): 4.72 log10 K | log K of transfer, water to solvent ([3]; Pentan-1-ol, 25 C): 4.53 log10 K | log K of transfer, water to solvent ([3]; Propan-1-ol, 25 C): 4.5 log10 K | log K of transfer, water to solvent ([3]; Propan-2-ol, 25 C): 4.27 log10 K | log K of transfer, water to solvent ([3]; Propionitrile, 25 C): 5.34 log10 K | log K of transfer, water to solvent ([3]; Tetrahydrofuran, 25 C): 5.62 log10 K
Compound: c1ccc2c(c1)ccc1ccccc12

Compound: c1ccc2c(c1)-c1cccc3cccc-2c13
log K of transfer, gas to solvent ([1]; 1,2-Dichloroethane, 25 C): 9.52 log10 K | log K of transfer, gas to solvent ([1]; 2-Methylpropan-1-ol, 25 C): 8.1 log10 K | log K of transfer, gas to solvent ([1]; 3-Methylbutan-1-ol, 25 C): 8.25 log10 K | log K of transfer, gas to solvent ([1]; Acetonitrile, 25 C): 8.75 log10 K | log K of transfer, gas to solvent ([1]; Benzene, 25 C): 9.46 log10 K | log K of transfer, gas to solvent ([1]; Butan-1-ol, 25 C): 8.4 log10 K | log K of transfer, gas to solvent ([1]; Butan-2-ol, 25 C): 8.25 log10 K | log K of transfer, gas to solvent ([1]; CCl4, 25 C): 9.27 log10 K | log K of transfer, gas to solvent ([1]; Chloroform, 25 C): 9.56 log10 K | log K of transfer, gas to solvent ([1]; Cyclohexane, 25 C): 8.51 log10 K | log K of transfer, gas to solvent ([1]; Di-n-butyl ether, 25 C): 8.84 log10 K | log K of transfer, gas to solvent ([1]; Diethyl Ether, 25 C): 9.08 log10 K | log K of transfer, gas to solvent ([1]; Ethanol, 25 C): 8.33 log10 K | log K of transfer, gas to solvent ([1]; Heptan-1-ol, 25 C): 8.72 log10 K | log K of transfer, gas to solvent ([1]; Hexadecane, 25 C): 8.82 log10 K | log K of transfer, gas to solvent ([1]; Hexan-1-ol, 25 C): 8.56 log10 K | log K of transfer, gas to solvent ([1]; Hexane, 25 C): 8.41 log10 K | log K of transfer, gas to solvent ([1]; Methanol, 25 C): 8.18 log10 K | log K of transfer, gas to solvent ([1]; Octan-1-ol, 25 C): 8.61 log10 K | log K of transfer, gas to solvent ([1]; Pentan-1-ol, 25 C): 8.49 log10 K | log K of transfer, gas to solvent ([1]; Propan-1-ol, 25 C): 8.31 log10 K | log K of transfer, gas to solvent ([1]; Propan-2-ol, 25 C): 8.15 log10 K | log K of transfer, gas to solvent ([1]; Toluene, 25 C): 9.38 log10 K | log K of transfer, gas to solvent ([1]; Water, 25 C): 3.44 log10 K | log K of transfer, water to solvent [2]: 5.16 log10 K | log K of transfer, water to solvent ([3]; 1,2-Dichloroethane, 25 C): 6.08 log10 K | log K of transfer, water to solvent ([3]; 2-Methylpropan-1-ol, 25 C): 4.66 log10 K | log K of transfer, water to solvent ([3]; 3-Methylbutan-1-ol, 25 C): 4.81 log10 K | log K of transfer, water to solvent ([3]; Acetonitrile, 25 C): 5.31 log10 K | log K of transfer, water to solvent ([3]; Benzene, 25 C): 6.02 log10 K | log K of transfer, water to solvent ([3]; Butan-1-ol, 25 C): 4.96 log10 K | log K of transfer, water to solvent ([3]; Butan-2-ol, 25 C): 4.81 log10 K | log K of transfer, water to solvent ([3]; CCl4, 25 C): 5.83 log10 K | log K of transfer, water to solvent ([3]; Chloroform, 25 C): 6.12 log10 K | log K of transfer, water to solvent ([3]; Cyclohexane, 25 C): 5.07 log10 K | log K of transfer, water to solvent ([3]; Di-n-butyl ether, 25 C): 5.41 log10 K | log K of transfer, water to solvent ([3]; Diethyl Ether, 25 C): 5.64 log10 K | log K of transfer, water to solvent ([3]; Ethanol, 25 C): 4.89 log10 K | log K of transfer, water to solvent ([3]; Heptan-1-ol, 25 C): 5.28 log10 K | log K of transfer, water to solvent ([3]; Hexadecane, 25 C): 5.38 log10 K | log K of transfer, water to solvent ([3]; Hexan-1-ol, 25 C): 5.13 log10 K | log K of transfer, water to solvent ([3]; Hexane, 25 C): 4.98 log10 K | log K of transfer, water to solvent ([3]; Methanol, 25 C): 4.74 log10 K | log K of transfer, water to solvent ([3]; Octan-1-ol(dry), 25 C): 5.17 log10 K | log K of transfer, water to solvent ([3]; Pentan-1-ol, 25 C): 5.05 log10 K | log K of transfer, water to solvent ([3]; Propan-1-ol, 25 C): 4.87 log10 K | log K of transfer, water to solvent ([3]; Propan-2-ol, 25 C): 4.72 log10 K | log K of transfer, water to solvent ([3]; Toluene, 25 C): 5.94 log10 K
